Results: ChEMBL document CHEMBL1126185, “2-(N'-alkylidenehydrazino)adenosines: potent and selective coronary vasodilators” (J Med Chem, 1992)

Legend:
Adenosine receptor A1 = molecular target: T1, Adenosine receptor A1 (Cavia porcellus, UniProt P47745); assay: In vitro prolonging of the stimulus-QRS interval in guinea pig heart.
T1 sequence (P47745 whole entry): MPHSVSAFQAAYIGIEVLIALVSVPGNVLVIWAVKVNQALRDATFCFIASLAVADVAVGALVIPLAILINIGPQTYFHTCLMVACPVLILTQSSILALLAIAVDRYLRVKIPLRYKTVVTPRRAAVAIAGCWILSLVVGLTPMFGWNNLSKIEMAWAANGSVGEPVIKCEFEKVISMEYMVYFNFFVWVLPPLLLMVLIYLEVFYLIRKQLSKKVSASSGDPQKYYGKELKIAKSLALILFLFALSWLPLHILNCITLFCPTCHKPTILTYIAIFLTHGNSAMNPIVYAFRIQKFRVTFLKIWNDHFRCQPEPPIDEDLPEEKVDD

[1] = molecular target: Adenosine A2 receptor (Cavia porcellus); assay: In vitro effect on coronary vasodilation in guinea pig heart.

EC50 (Adenosine receptor A1) [µM]	-Log EC50 [1]	SMILES
20.9	9.33	CC(C)C/C=N/Nc1nc(N)c2ncn([C@@H]3O[C@H](CO)[C@@H](O)[C@H]3O)c2n1
11.5	8.54	CCC/C=N/Nc1nc(N)c2ncn(C3O[C@H](CO)[C@@H](O)[C@H]3O)c2n1 (stereo partly specified)
12.6	8.13	CC(C)/C=N/Nc1nc(N)c2ncn(C3O[C@H](CO)[C@@H](O)[C@H]3O)c2n1 (stereo partly specified)
3.63	7.12	C/C=N/Nc1nc(N)c2ncn(C3O[C@H](CO)[C@@H](O)[C@H]3O)c2n1 (stereo partly specified)
12	7.3	CC(C)=NNc1nc(N)c2ncn(C3O[C@H](CO)[C@@H](O)[C@H]3O)c2n1 (stereo partly specified)
66.1		Nc1nc(N/N=C/CCC2CCCCC2)nc2c1ncn2C1O[C@H](CO)[C@@H](O)[C@H]1O (stereo partly specified)
13.5	7.88	CC/C=N/Nc1nc(N)c2ncn(C3O[C@H](CO)[C@@H](O)[C@H]3O)c2n1 (stereo partly specified)
20		NNc1nc(N)c2ncn(C3O[C@H](CO)[C@@H](O)[C@H]3O)c2n1 (stereo partly specified)
25.1	7.46	CC(C)(C)/C=N/Nc1nc(N)c2ncn(C3O[C@H](CO)[C@@H](O)[C@H]3O)c2n1 (stereo partly specified)
11	8.24	CCC(/C=N/Nc1nc(N)c2ncn(C3O[C@H](CO)[C@@H](O)[C@H]3O)c2n1)CC (stereo partly specified)
7.24		Nc1nc(N/N=C/C2CC=CCC2)nc2c1ncn2C1O[C@H](CO)[C@@H](O)[C@H]1O (stereo partly specified)
25.1	8.99	CCCC/C=N/Nc1nc(N)c2ncn(C3O[C@H](CO)[C@@H](O)[C@H]3O)c2n1 (stereo partly specified)
8.91	6.75	CCC(CC)=NNc1nc(N)c2ncn(C3O[C@H](CO)[C@@H](O)[C@H]3O)c2n1 (stereo partly specified)
16.6	8.7	CCC/C(C)=N/Nc1nc(N)c2ncn(C3O[C@H](CO)[C@@H](O)[C@H]3O)c2n1 (stereo partly specified)
3.55		Nc1nc(N/N=C/C2CCCCC2)nc2c1ncn2[C@@H]1O[C@H](CO)[C@@H](O)[C@H]1O [BINODENOSON]

SMILES	EC50 (Adenosine receptor A1) [µM]	-Log EC50 [1]
Nc1nc(NCCC2=CCCCC2)nc2c1ncn2C1O[C@H](CO)[C@@H](O)[C@H]1O (stereo partly specified)	22.9	8.65
Nc1nc(N/N=C/C2=CCCCC2)nc2c1ncn2C1O[C@H](CO)[C@@H](O)[C@H]1O (stereo partly specified)	17.4	
Nc1nc(N/N=C/CC2CCCCC2)nc2c1ncn2C1O[C@H](CO)[C@@H](O)[C@H]1O (stereo partly specified)	9.77	9.16
Nc1nc(N/N=C/C2=CC3CCC2C3)nc2c1ncn2C1O[C@H](CO)[C@@H](O)[C@H]1O (stereo partly specified)	20.4	8.48
CC1(C)C2CC=C(/C=N/Nc3nc(N)c4ncn(C5O[C@H](CO)[C@@H](O)[C@H]5O)c4n3)C1C2 (stereo partly specified)	25.7	
Nc1nc(NCCC2CCCCC2)nc2c1ncn2C1O[C@H](CO)[C@@H](O)[C@H]1O (stereo partly specified)	12.3	8.72
